Here are results for 23 compounds from patent US9150575B2, “Piperidinylpyrazolopyridine derivative” (Daiichi Sankyo Company, Limited, priority 2012, dated 2015).

This assay deals with T1, LCAT (Homo sapiens, UniProt P04180).
T1 construct: The obtained fraction was dialyzed against phosphate-buffered saline (pH 7.4) and used as an enzyme source and an acceptor for LCAT; from tissue; host or cells: HDL3 fraction (1.125<specific gravity<1.210 g/mL) of plasma from a healthy person
T1 sequence (P04180 25-440): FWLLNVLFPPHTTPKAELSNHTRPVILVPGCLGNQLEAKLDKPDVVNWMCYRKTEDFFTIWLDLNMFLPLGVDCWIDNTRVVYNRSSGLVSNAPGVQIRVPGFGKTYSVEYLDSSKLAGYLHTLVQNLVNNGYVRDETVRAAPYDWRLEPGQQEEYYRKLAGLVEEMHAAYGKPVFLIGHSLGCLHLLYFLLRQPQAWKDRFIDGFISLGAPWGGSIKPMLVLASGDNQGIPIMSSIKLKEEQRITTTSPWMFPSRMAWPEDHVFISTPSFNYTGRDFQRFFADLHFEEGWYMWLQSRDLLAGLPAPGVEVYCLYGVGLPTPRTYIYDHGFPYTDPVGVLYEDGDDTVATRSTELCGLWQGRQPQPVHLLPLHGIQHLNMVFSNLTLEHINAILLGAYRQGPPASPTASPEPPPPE
The assay can be described thus: LCAT Activity Measurement (In Vitro). Type of assay: biochemical. Particulars: EC50 of LCAT activation; HDL3 fraction from plasma of a healthy person as enzyme source and acceptor; [14C]cholesterol; 37° C., approximately 16 hours. As for the experimental part:
A fraction composed of HDL3 (1.125<specific gravity<1.210 g/mL) was obtained from the plasma of a healthy person by density gradient centrifugation. The obtained fraction was dialyzed against phosphate-buffered saline (pH 7.4) and used as an enzyme source and an acceptor for LCAT. Each test drug was prepared by dissolution in dimethyl sulfoxide. [14C]Cholesterol containing DTNB (Ellman's reagent, final concentration: 0.5 mM), mercaptoethanol (final concentration: 12.5 mM), and 0.6% bovine serum albumin was added to phosphate-buffered saline (pH 7.4) containing 1 mg/mL HDL3, and the test drug was further added thereto at varying concentrations to adjust the whole amount to 80 μL. This mixture was incubated at 37° C. for approximately 16 hours. Then, a mixed solution of hexane and isopropanol (mixing ratio=3:2) was added thereto to stop the reaction. After stirring, the hexane layer was collected, and this layer was evaporated to dryness. A chloroform solution (concentration: 10 mg/mL) was added thereto, and the mixture was spotted onto a thin-layer silica gel plate and developed using a mixed solution of hexane, diethyl ether, and ethyl acetate (mixing ratio=85:15:2). The radioactivity of a portion corresponding to cholesterol oleate was measured using an imaging analyzer BAS-2500 (manufactured by Fujifilm Corp.). A sample non-supplemented with the test drug was similarly treated and assayed. The EC50 value of LCAT activation was calculated according to the expression given below relative to LCAT activity in the sample non-supplemented with the test drug.
wherein X represents the logarithm of the concentration of the test drug;
Y represents the responsiveness (LCAT activity) of the test drug;
Top represents the maximum value (maximum plateau);
Bottom represents the minimum value (minimum plateau); and
EC50 represents the 50% effective concentration.
Regarding `N#Cc1cnc(N2CCC(c3n[nH]c4c3C(O)(C(F)(F)F)CC(=O)N4)CC2)s1` (centres unmarked) [Example 81, 2-{4-[4-Hydroxy-6-oxo-4-(trifluoromethyl)-4,5,6,7-tetrahydro-1H-pyrazolo[3,4-b]pyridin-3-yl]piperidin-1-yl}-1,3-thiazole-5-carbonitrile], a half-maximal response (EC50) required 470 nM. For `O=C1CC(O)(C(F)(F)F)c2c(C3CCN(c4ccc(C(F)(F)F)cn4)CC3)n[nH]c2N1` (single isomer, unassigned; (+)) [Compound 49-2, (+)-4-hydroxy-4-(trifluoromethyl)-3-{1-[5-(trifluoromethyl)pyridin-2-yl]piperidin-4-yl}-1,4,5,7-tetrahydro-6H-pyrazolo[3,4-b]pyridin-6-one] the value was 3770 nM; for `COc1ccc(N2CCC(c3n[nH]c4c3C(O)(C(F)(F)F)CC(=O)N4)CC2)nn1` (centres unmarked) [Example 28, 4-Hydroxy-3-[1-(6-methoxypyridazin-3-yl)piperidin-4-yl]-4-(trifluoromethyl)-1,4,5,7-tetrahydro-6H-pyrazolo[3,4-b]pyridin-6-one], 300 nM.

In the case of `N#Cc1cnc(N2CCC(c3n[nH]c4c3C(O)(C(F)(F)F)CC(=O)N4)CC2)c(C(F)(F)F)c1` (centres unmarked) [Example 104, 6-{4-[4-Hydroxy-6-oxo-4-(trifluoromethyl)-4,5,6,7-tetrahydro-1H-pyrazolo[3,4-b]pyridin-3-yl]piperidin-1-yl}-5-(trifluoromethyl)pyridine-3-carbonitrile], the concentration giving a half-maximal response (EC50) stood at 1100 nM. For `O=C1CC(O)(C(F)(F)F)c2c(C3CCN(c4ccc(C(F)(F)F)c(F)n4)CC3)n[nH]c2N1` (centres unmarked) [Example 97, 3-{1-[6-Fluoro-5-(trifluoromethyl)pyridin-2-yl]piperidin-4-yl}-4-hydroxy-4-(trifluoromethyl)-1,4,5,7-tetrahydro-6H-pyrazolo[3,4-b]pyridin-6-one] the value was 35 nM; for `Cc1nc(N2CCC(c3n[nH]c4c3C(O)(C(F)(F)F)CC(=O)N4)CC2)ccc1C#N` (centres unmarked) [Example 20, 6-{4-[4-Hydroxy-6-oxo-4-(trifluoromethyl)-4,5,6,7-tetrahydro-1H-pyrazolo[3,4-b]pyridin-3-yl]piperidin-1-yl}-2-methylpyridine-3-carbonitrile], 290 nM. For the compound `CCOc1ccc(N2CCC(c3n[nH]c4c3C(O)(C(F)(F)F)CC(=O)N4)CC2)cc1` (centres unmarked) [Example 59, 3-[1-(4-Ethoxyphenyl)piperidin-4-yl]-4-hydroxy-4-(trifluoromethyl)-1,4,5,7-tetrahydro-6H-pyrazolo[3,4-b]pyridin-6-one], the EC50 was 260 nM. With `COC(=O)c1nc(N2CCC(c3n[nH]c4c3C(O)(C(F)(F)F)CC(=O)N4)CC2)ccc1C(F)(F)F` (centres unmarked) [Example 77, Methyl 6-{4-[4-hydroxy-6-oxo-4-(trifluoromethyl)-4,5,6,7-tetrahydro-1H-pyrazolo[3,4-b]pyridin-3-yl]piperidin-1-yl}-3-(trifluoromethyl)pyridine-2-carboxylate], the EC50 turned out to be 58 nM. As for `O=C1CC(O)(C(F)(F)F)c2c(C3CCN(c4ccc(Cl)cn4)CC3)n[nH]c2N1` (centres unmarked) [Example 14, 3-[1-(5-Chloropyridin-2-yl)piperidin-4-yl]-4-hydroxy-4-(trifluoromethyl)-1,4,5,7-tetrahydro-6H-pyrazolo[3,4-b]pyridin-6-one], the figure is 86 nM; as for `CN(C)c1ccc(N2CCC(c3n[nH]c4c3C(O)(C(F)(F)F)CC(=O)N4)CC2)cn1` (centres unmarked) [Example 68, 3-{1-[6-(Dimethylamino)pyridin-3-yl]piperidin-4-yl}-4-hydroxy-4-(trifluoromethyl)-1,4,5,7-tetrahydro-6H-pyrazolo[3,4-b]pyridin-6-one], 760 nM.

`COc1ccnc(N2CCC(c3n[nH]c4c3C(O)(C(F)(F)F)CC(=O)N4)CC2)n1` (centres unmarked) [Example 30, 4-Hydro-3-[1-(4-methoxypyrimidin-2-yl)piperidin-4-yl]-4-(trifluoromethyl)-1,4,5,7-tetrahydro-6H-pyrazolo[3,4-b]pyridin-6-one] showed an EC50 of 2460 nM.

`O=C1CC(O)(C(F)(F)F)c2c(C3CCN(c4cnc(C(F)(F)F)nc4)CC3)n[nH]c2N1` (centres unmarked) [Example 65, 4-Hydroxy-4-(trifluoromethyl)-3-{1-[2-(trifluoromethyl)pyrimidin-5-yl]piperidin-4-yl}-1,4,5,7-tetrahydro-6H-pyrazolo[3,4-b]pyridin-6-one] returned a half-maximal effective concentration (EC50) of 13 nM. As for `N#Cc1ccc(N2CCC(c3n[nH]c4c3C(O)(C(F)(F)F)CC(=O)N4)CC2)nc1` (centres unmarked) [Example 31, 6-{4-[4-Hydroxy-6-oxo-4-(trifluoromethyl)-4,5,6,7-tetrahydro-1H-pyrazolo[3,4-b]pyridin-3-yl]piperidin-1-yl}pyridine-3-carbonitrile], the figure is 330 nM; as for `Cc1ccnc(N2CCC(c3n[nH]c4c3C(O)(C(F)(F)F)CC(=O)N4)CC2)c1` (centres unmarked) [Example 5, 4-Hydroxy-3-[1-(4-methylpyridin-2-yl)piperidin-4-yl]-4-(trifluoromethyl)-1,4,5,7-tetrahydro-6H-pyrazolo[3,4-b]pyridin-6-one], 290 nM.

As for `O=C1CC(O)(C(F)(F)F)c2c(C3CCN(c4nc5ccccc5s4)CC3)n[nH]c2N1` (centres unmarked) [Example 25, 3-[1-(1,3-Benzothiazol-2-yl)piperidin-4-yl]-4-hydroxy-4-(trifluoromethyl)-1,4,5,7-tetrahydro-6H-pyrazolo[3,4-b]pyridin-6-one], the concentration for a half-maximal effect (EC50) turned out to be 200 nM. For `O=C1CC(O)(C(F)(F)F)c2c(C3CCN(c4ncccc4C(F)(F)F)CC3)n[nH]c2N1` (centres unmarked) [Example 9, 4-Hydroxy-4-(trifluoromethyl)-3-{1-[3-(trifluoromethyl)pyridin-2-yl]piperidin-4-yl}-1,4,5,7-tetrahydro-6H-pyrazolo[3,4-b]pyridin-6-one] the value was 1150 nM; for `O=C1CC(O)(C(F)(F)F)c2c(C3CCN(c4cc(C(=O)OCc5ccccc5)c(C(F)(F)F)cn4)CC3)n[nH]c2N1` (centres unmarked) [Example 85, Benzyl 2-[4-(4-hydroxy-6-oxo-4-(trifluoromethyl)-4,5,6,7-tetrahydro-1H-pyrazolo[3,4-b]pyridin-3-yl)piperidin-1-yl]-5-(trifluoromethyl)pyridine-4-carboxylate], 13 nM; for `O=C1CC(O)(C(F)(F)F)c2c(C3CCN(c4ccc5ccccc5n4)CC3)n[nH]c2N1` (centres unmarked) [Example 16, 4-Hydroxy-3-[1-(quinolin-2-yl)piperidin-4-yl]-4-(trifluoromethyl)-1,4,5,7-tetrahydro-6H-pyrazolo[3,4-b]pyridin-6-one], 96 nM. As for `Cc1ccc(N2CCC(c3n[nH]c4c3C(O)(C(F)(F)F)CC(=O)N4)CC2)nc1` (centres unmarked) [Example 4, 4-Hydroxy-3-[1-(5-methylpyridin-2-yl)piperidin-4-yl]-4-(trifluoromethyl)-1,4,5,7-tetrahydro-6H-pyrazolo[3,4-b]pyridin-6-one], the figure is 250 nM; as for `CC(C)c1cc(N2CCC(c3n[nH]c4c3C(O)(C(F)(F)F)CC(=O)N4)CC2)nc(C(C)C)n1` (centres unmarked) [Example 75, 3-{1-[2,6-di(Propan-2-yl)pyrimidin-4-yl]piperidin-4-yl}-4-hydroxy-4-(trifluoromethyl)-1,4,5,7-tetrahydro-6H-pyrazolo[3,4-b]pyridin-6-one], 220 nM; as for `O=C1CC(O)(C(F)(F)F)c2c(C3CCN(c4ccc(C(F)(F)F)c(Cl)n4)CC3)n[nH]c2N1` (centres unmarked) [Compound 98-a, 3-{1-[6-Chloro-5-(trifluoromethyl)pyridin-2-yl]piperidin-4-yl}-4-hydroxy-4-(trifluoromethyl)-1,4,5,7-tetrahydro-6H-pyrazolo[3,4-b]pyridin-6-one], 23 nM.

The compound `N#Cc1ccc(N2CCC(c3n[nH]c4c3C(O)(C(F)(F)F)CC(=O)N4)CC2)cn1` (centres unmarked) [Example 19, 5-{4-[4-Hydroxy-6-oxo-4-(trifluoromethyl)-4,5,6,7-tetrahydro-1H-pyrazolo[3,4-b]pyridin-3-yl]piperidin-1-yl}pyridine-2-carbonitrile] registered an EC50 of 650 nM.

`O=C1CC(O)(C(F)(F)F)c2c(C3CCN(c4nc(C(F)(F)F)c(-c5nc(C(F)(F)F)cs5)s4)CC3)n[nH]c2N1` (centres unmarked) [Compound 48-b, 3-{1-[4,4′-bis(trifluoromethyl)-2,5′-bi-1,3-thiazol-2′-yl]piperidin-4-yl}-4-hydroxy-4-(trifluoromethyl)-1,4,5,7-tetrahydro-6H-pyrazolo[3,4-b]pyridin-6-one] gave an EC50 of 46 nM.

As a reminder, the EC50 is the concentration needed to bring the measured effect to its halfway point.
